From US8609852B2, “Thiazolyl mGluR5 antagonists and methods for their use” (Merck Sharp & Dohme Corp., priority 2004, dated 2013) come the findings set out here.

In one assay the target is hmGluR5a receptor (Homo sapiens (Human), UniProt P41594). The assay is described as follows: Calcium Flux Assay. The assay is classed as cell-based. The following applies: hmGluR5a/L38-20 cells, glutamate-evoked [Ca2+]i. How it is done:
The activity of compounds was examined against the hmGluR5a receptor stably expressed in mouse fibroblast Ltk− cells (the hmGluR5a/L38-20 cell line). See generally Daggett et al., Neuropharmacology 34:871-886 (1995). Receptor activity was detected by changes in intracellular calcium ([Ca^2+]i) measured using the fluorescent calcium-sensitive dye, fura-2. hmGluR5a/L38-20 cells were plated onto 96-well plates, and loaded with 3 µM fura-2 for 1 h. Unincorporated dye was washed from the cells, and the cell plate was transferred to a custom-built 96-channel fluorimeter (SIBIA-SAIC, La Jolla, Calif.) which is integrated into a fully automated plate handling and liquid delivery system. Cells were excited at 350 and 385 nm with a xenon source combined with optical filters. Emitted light was collected from the sample through a dichroic mirror and a 510 nm interference filter and directed into a cooled CCD camera (Princeton Instruments). Image pairs were captured approximately every 1 s, and ratio images were generated after background subtraction. After a basal reading of 20 s, an EC80 concentration of glutamate ([…]) was added to the well, and the response evaluated for another 60 s. The glutamate-evoked increase in [Ca^2+]i in the presence of the screening compound was compared to the response of glutamate alone (the positive control).
Background: Calcium assays in cells follow changes in intracellular calcium, usually with a dye or a luminescent sensor.

Assay [1] concerns the target metabotropic glutamate receptor subtype 5 (Rattus norvegicus (Rat), UniProt P31424). The assay is described as follows: [3H]-mGluR5 Antagonist Binding to Rodent Brain Membranes. How it is done:
In accordance with Anderson J J, Rao S P, Rowe B, Giracello D R, Holtz G, Chapman D F, Tehrani L, Bradbury M J, Cosford N D, Varney M A, [^3H]Methoxymethyl-3-[(2-methyl-1,3-thiazol-4-yl)ethynyl]pyridine binding to metabotropic glutamate receptor subtype 5 in rodent brain: in vitro and in vivo characterization. J Pharmacol Exp Ther. 2002 December; 303 (3):1044-51, membranes were prepared (as described in Ransom R W and Stec N L (1988) Cooperative modulation of [^3H]MK-801 binding to the N-methyl-D-aspartate receptor-ion channel complex by L-glutamate, glycine, and polyamines. J Neurochem 51:830-836) using whole rat brain, or mGlu5^+/+ or mGlu5^−/− whole mouse brain.
Binding assays were performed as described in Schaffhauser H, Richards J G, Cartmell J, Chaboz S, Kemp J A, Klingelschmidt A, Messer J, Stadler H, Woltering T and Mutel V (1998) In vitro binding characteristics of a new selective group II metabotropic glutamate receptor radioligand, [^3H]LY354740, in rat brain. Mol Pharmacol 53:228-233) at room temperature with slight modifications. Briefly, membranes were thawed and washed once with assay buffer (50 mM HEPES, 2 mM MgCl2, pH 7.4), followed by centrifugation at 40,000×g for 20 min. The pellet was resuspended in assay buffer and briefly homogenized with a Polytron.
For protein linearity experiments, increasing concentrations of membrane protein were added to 96-well plates in triplicate and binding was initiated by addition of 20 nM [^3H]methoxymethyl-3-[(2-methyl-1,3-thiazol-4-yl)ethynyl]pyridine. The assay was incubated for 2 h and non-specific binding was determined using 10 μM MPEP. The binding was terminated by rapid filtration through glass-fiber filters (Unifilter-96 GF/B plate, Packard) using a 96-well plate Brandel cell harvester. Following addition of scintillant, the radioactivity was determined by liquid scintillation spectrometry. Protein measurements were performed by BioRad-DC Protein assay using bovine serum albumin as the standard.
Saturation binding experiments were performed in triplicate with increasing concentrations of [^3H]methoxymethyl-3-[(2-methyl-1,3-thiazol-4-yl)ethynyl]pyridine (1 pM to 100 nM). The time course of association was measured by the addition of 10 nM [^3H]methoxymethyl-3-[(2-methyl-1,3-thiazol-4-yl)ethynyl]pyridine to the membranes at different time points (0-240 min), followed by filtration. Dissociation was measured by the addition of 100 μM unlabeled methoxymethyl-3-[(2-methyl-1,3-thiazol-4-yl)ethynyl]pyridine at different time points to membranes previously incubated for 3 h with 10 nM [^3H]methoxymethyl-3-[(2-methyl-1,3-thiazol-4-yl)ethynyl]pyridine. For competition experiments, 100 μg membrane protein and 10 nM [^3H]methoxymethyl-3-[(2-methyl-1,3-thiazol-4-yl)ethynyl]pyridine was added to wells containing increasing concentration of the test compound in duplicate (methoxymethyl-3-[(2-methyl-1,3-thiazol-4-yl)ethynyl]pyridine or MPEP). [^3H]-3-Methoxy-5-(pyridin-2-ylethynyl)pyridine may also be used as the radioligand in the procedure described above. (See, Cosford, N. D. P.; Roppe, J.; Tehrani, L.; Seiders, T. J.; Schweiger, E. J. et al. [3H]-Methoxymethyl-MTEP and [3H]-methoxy-PEPy): Potent and selective radioligands for the Metabotropic Glutamate Subtype 5 (mGlu5) Receptor. Bioorg. Med. Chem. Lett. 2003, 13, 351-354.)

Where a name gives a salt, the structure may show the parent alone.

metabotropic glutamate receptor subtype 5, sequence (P31424 21-1203): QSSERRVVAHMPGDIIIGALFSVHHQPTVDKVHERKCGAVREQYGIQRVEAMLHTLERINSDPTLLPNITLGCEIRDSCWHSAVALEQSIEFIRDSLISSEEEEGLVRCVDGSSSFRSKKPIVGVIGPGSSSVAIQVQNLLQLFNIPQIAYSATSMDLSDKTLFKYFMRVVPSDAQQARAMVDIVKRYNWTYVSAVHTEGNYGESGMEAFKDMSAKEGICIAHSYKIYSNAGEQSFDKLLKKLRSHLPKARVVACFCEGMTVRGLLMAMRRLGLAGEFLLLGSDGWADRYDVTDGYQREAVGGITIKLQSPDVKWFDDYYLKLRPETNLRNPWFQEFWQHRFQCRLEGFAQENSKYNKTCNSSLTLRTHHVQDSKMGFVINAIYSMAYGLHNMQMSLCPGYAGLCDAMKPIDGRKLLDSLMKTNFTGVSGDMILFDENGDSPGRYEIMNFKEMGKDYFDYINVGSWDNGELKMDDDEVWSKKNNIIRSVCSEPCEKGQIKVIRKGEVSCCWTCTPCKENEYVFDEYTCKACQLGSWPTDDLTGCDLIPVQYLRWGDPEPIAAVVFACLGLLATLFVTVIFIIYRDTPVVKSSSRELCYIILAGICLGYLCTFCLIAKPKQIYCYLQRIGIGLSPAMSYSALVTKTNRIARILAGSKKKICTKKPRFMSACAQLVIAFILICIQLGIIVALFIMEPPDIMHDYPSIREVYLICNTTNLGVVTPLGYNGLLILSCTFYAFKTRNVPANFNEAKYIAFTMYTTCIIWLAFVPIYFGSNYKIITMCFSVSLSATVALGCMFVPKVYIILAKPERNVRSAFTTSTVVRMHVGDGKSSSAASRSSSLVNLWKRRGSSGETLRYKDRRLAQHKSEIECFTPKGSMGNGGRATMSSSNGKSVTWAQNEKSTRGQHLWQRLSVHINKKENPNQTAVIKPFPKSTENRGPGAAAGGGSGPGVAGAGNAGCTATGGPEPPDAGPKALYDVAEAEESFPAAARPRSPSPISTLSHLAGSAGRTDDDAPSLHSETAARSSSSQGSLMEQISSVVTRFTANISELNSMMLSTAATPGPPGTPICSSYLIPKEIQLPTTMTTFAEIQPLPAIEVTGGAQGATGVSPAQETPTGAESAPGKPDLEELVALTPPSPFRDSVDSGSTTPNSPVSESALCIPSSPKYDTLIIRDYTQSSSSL
hmGluR5a receptor, sequence (P41594 other isoform, or with tags, fused parts or gaps): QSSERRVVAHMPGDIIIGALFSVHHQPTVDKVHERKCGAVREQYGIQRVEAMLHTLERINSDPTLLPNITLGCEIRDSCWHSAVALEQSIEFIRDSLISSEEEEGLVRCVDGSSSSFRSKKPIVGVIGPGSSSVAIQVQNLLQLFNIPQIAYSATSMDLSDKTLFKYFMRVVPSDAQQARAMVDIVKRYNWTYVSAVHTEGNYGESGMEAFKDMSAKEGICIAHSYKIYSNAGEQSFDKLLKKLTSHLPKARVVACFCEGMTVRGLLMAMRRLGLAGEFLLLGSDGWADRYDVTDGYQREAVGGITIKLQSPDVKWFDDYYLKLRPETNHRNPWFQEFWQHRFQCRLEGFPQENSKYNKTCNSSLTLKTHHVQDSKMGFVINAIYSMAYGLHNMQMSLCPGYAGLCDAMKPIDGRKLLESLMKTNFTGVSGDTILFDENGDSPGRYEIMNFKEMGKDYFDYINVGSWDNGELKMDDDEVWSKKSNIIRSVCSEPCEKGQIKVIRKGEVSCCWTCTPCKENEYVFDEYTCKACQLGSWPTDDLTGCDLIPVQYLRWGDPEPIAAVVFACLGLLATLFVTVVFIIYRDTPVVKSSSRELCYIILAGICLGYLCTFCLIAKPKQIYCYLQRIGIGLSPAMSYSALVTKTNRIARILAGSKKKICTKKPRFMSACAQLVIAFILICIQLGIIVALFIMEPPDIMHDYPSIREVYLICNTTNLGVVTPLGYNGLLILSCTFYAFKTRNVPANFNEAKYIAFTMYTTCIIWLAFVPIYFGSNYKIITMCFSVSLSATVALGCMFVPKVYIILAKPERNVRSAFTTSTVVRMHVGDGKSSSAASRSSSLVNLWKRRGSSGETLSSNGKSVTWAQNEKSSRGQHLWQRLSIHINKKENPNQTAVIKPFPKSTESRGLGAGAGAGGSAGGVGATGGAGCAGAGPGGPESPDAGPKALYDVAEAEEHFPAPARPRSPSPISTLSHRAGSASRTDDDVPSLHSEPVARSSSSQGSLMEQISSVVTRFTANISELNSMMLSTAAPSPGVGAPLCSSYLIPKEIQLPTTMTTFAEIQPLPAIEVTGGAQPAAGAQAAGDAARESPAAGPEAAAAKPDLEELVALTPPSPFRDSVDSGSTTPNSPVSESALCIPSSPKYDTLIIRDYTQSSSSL

As to `Cc1nc(C#Cc2ccc(-c3ccccc3CO)nc2)cs1` [Example 44], the IC50 (usually the midpoint of a concentration-inhibition curve) at hmGluR5a receptor worked out at 11 nM. In addition, the Ki (in general, the equilibrium dissociation constant of an inhibitor or competing ligand from its target) in assay [1] came to 2 nM. In the case of `Cc1nc(C#Cc2ccc(-c3cc(C#N)ccc3F)nc2)cs1` [Example 48], the IC50 on hmGluR5a receptor came out at 9 nM. In addition, the inhibition constant (Ki) in assay [1] came to 12.5 nM. Consider `Cc1nc(C#Cc2cncc(Nc3cccnc3)c2)cs1` [Example 41], for which the IC50 on hmGluR5a receptor was 11 nM. This molecule came in with a Ki in assay [1] of 5 nM.

`Cc1nc(C#Cc2ccc(N3CCC(F)CC3)nc2)cs1` [Example 88]: at hmGluR5a receptor, the IC50 is 2 nM. Affinity in assay [1] was put at a Ki of 4 nM. For `Cc1nc(C#Cc2ccc(-c3ccc(F)cc3C)nc2)cs1` [Example 9, 2-(4-fluoro-2-methylphenyl)-5-[(2-methyl-1,3-thiazol-4-yl)ethynyl]pyridinium trifluoroacetate], the IC50 on hmGluR5a receptor is 1.1 nM. In the case of `Cc1nc(C#Cc2ccc(-c3ccccc3Cl)nc2)cs1` [Example 7, 2-(2-chlorophenyl)-5-[(2-methyl-1,3-thiazol-4-yl)ethynyl]pyridine], the IC50 at hmGluR5a receptor came to 1.1 nM. In assay [1], this molecule came in with a Ki of 0.7 nM. Consider `Cc1nc(C#Cc2ccc(N3CCCC3)nc2)cs1` [Example 69], for which the IC50 on hmGluR5a receptor was found to be 5 nM. The same molecule showed a Ki in assay [1] of 14 nM. In the same order, the values of `Cc1nc(C#Cc2ccc(N3CCCCCC3)nc2)cs1` [Example 57] are 7 nM and 7.5 nM.

Turning to `Cc1nc(C#Cc2cnc(OC3CCN(C(=O)OC(C)(C)C)CC3)nc2)cs1` [Example 101], the IC50 at hmGluR5a receptor was 2 nM. This molecule had a Ki in assay [1] of 24 nM. Take `Cc1nc(C#Cc2ccc(N3CC4CCC3C4)nc2)cs1` (centres unmarked) [Example 74]: the IC50 at hmGluR5a receptor was found to be 4 nM. Besides, the Ki in assay [1] came to 7.5 nM.

`Cc1nc(C#Cc2ccc(N3C(C)CCC3C)nc2)cs1` (centres unmarked) [Example 58]: on hmGluR5a receptor, the IC50 worked out at 7 nM. Besides, the Ki in assay [1] turned out to be 1.5 nM. For `Cc1nc(C#Cc2cnc(NC3CCCC3)nc2)cs1` [Example 102], the IC50 at hmGluR5a receptor came out at 2 nM. The molecule further had a Ki in assay [1] of 26 nM. For `Cc1nc(C#Cc2cncc(-c3cccc(C#N)c3)c2)cs1` [Example 85], the 50% inhibitory concentration (IC50) on hmGluR5a receptor was determined as 2 nM. The molecule further had a Ki in assay [1] of 1 nM. Molecule `Cc1nc(C#Cc2cnc(-c3ccccc3F)nc2)cs1` [Example 106] showed a Ki in assay [1] of 6 nM. As for `Cc1nc(C#Cc2ccc(-c3ccccc3F)nc2)cs1` [Example 2, 2-(2-fluorophenyl)-5-[(2-methyl-1,3-thiazol-4-yl)ethynyl]pyridine], the 50% inhibitory concentration (IC50) at hmGluR5a receptor was 1 nM. In addition, the Ki in assay [1] amounted to 2 nM. In the same order, the values of `Cc1nc(C#Cc2ccc(-c3cccc4ncccc34)nc2)cs1` [Example 35] are 17 nM and 5 nM. Take `Cc1nc(C#Cc2ccc(N3CCCC3C)nc2)cs1` (centres unmarked) [Example 20, 2-(2-methylpyrrolidin-1-yl)-5-[(2-methyl-1,3-thiazol-4-yl)ethynyl]pyridine]: on hmGluR5a receptor, the IC50 turned out to be 1 nM. For the same molecule, the Ki in assay [1] worked out at 1.4 nM. With `Cc1ccc(F)c(-c2ccc(C#Cc3csc(C)n3)cn2)c1` [Example 54], the IC50 on hmGluR5a receptor turned out to be 8 nM. The same molecule had a Ki in assay [1] of 1.5 nM. On to `COc1c(F)cc(F)cc1-c1ccc(C#Cc2csc(C)n2)cn1` [Example 10, 2-(3,5-difluoro-2-methoxyphenyl)-5-[(2-methyl-1,3-thiazol-4-yl)ethynyl]pyridinium trifluoroacetate], for which the IC50 on hmGluR5a receptor came out at 0.7 nM.

Consider `Cc1nc(C#Cc2cnc(-n3ccc4ccncc43)nc2)cs1` [Example 99], for which the IC50 on hmGluR5a receptor was found to be 2.8 nM. Also, in assay [1], the Ki was 33 nM. On the same counts, the results for `CCOc1ccccc1-c1ccc(C#Cc2csc(C)n2)cn1` [Example 89] are 1.6 nM and 2 nM. In the case of `Cc1nc(C#Cc2cnc(C3CCCCC3)nc2)cs1` [Example 32, 2-cyclohexyl-5-[(2-methyl-1,3-thiazol-4-yl)ethynyl]pyrimidine], the IC50 on hmGluR5a receptor was 1 nM. For the same molecule, in assay [1], the Ki stood at 4.8 nM. On to `Cc1nc(C#Cc2ccc(-c3cccc(C)c3C)nc2)cs1` [Example 63], for which the IC50 at hmGluR5a receptor amounted to 6 nM. Also, the affinity in assay [1] corresponds to a Ki of 4 nM. On to `Cc1nc(C#Cc2ccc(N3CCCCC3)nc2)cs1` [Example 19, 5-[(2-methyl-1,3-thiazol-4-yl)ethynyl]-2-piperidin-1-ylpyridine], for which the IC50 on hmGluR5a receptor came to 1.8 nM. In addition, the affinity in assay [1], expressed as Ki, was 2.8 nM. In the same order, the values of `Cc1nc(C#Cc2cnc(OC(C)C)nc2)cs1` [Example 25, 2-isopropoxy-5-[(2-methyl-1,3-thiazol-4-yl)ethynyl]pyrimidine] are 1.4 nM and 9 nM. Turning to `Cc1nc(C#Cc2cncc(Oc3cccnc3)c2)cs1` [Example 91], at hmGluR5a receptor, the IC50 was 1 nM. For the same molecule, the inhibitory constant (Ki) in assay [1] amounted to 1 nM. As for `Cc1nc(C#Cc2cnc(N3CCCCC3CO)nc2)cs1` (centres unmarked) [Example 107], the IC50 on hmGluR5a receptor amounted to 16 nM. In assay [1], this molecule displayed a Ki of 9 nM. Take `Cc1nc(C#Cc2ccc(OC(C)(C)C)nc2)cs1` [Example 27, 2-tert-butoxy-5-[(2-methyl-1,3-thiazol-4-yl)ethynyl]pyridine]: the IC50 on hmGluR5a receptor came out at 1.4 nM. For the same molecule, in assay [1], the affinity corresponds to a Ki of 1 nM. Take `Cc1cccc(-c2ccc(C#Cc3csc(C)n3)cn2)c1` [Example 52]: the IC50 on hmGluR5a receptor was determined as 8 nM. Also, in assay [1], affinity was put at a Ki of 2 nM. Consider `Cc1nc(C#Cc2ccc(-n3ccc4ccccc43)nc2)cs1` [Example 39], for which the IC50 at hmGluR5a receptor worked out at 13 nM. This molecule had a Ki in assay [1] of 4 nM. As to `COc1cc(F)ccc1-c1ccc(C#Cc2csc(C)n2)cn1` [Example 11, 2-(4-fluoro-2-methoxyphenyl)-5-[(2-methyl-1,3-thiazol-4-yl)ethynyl]pyridinium trifluoroacetate], the IC50 on hmGluR5a receptor worked out at 1.3 nM. As to `Cc1nc(C#Cc2cnc(N3CC=CC3)nc2)cs1` [Example 104], at hmGluR5a receptor, the IC50 worked out at 1.5 nM. This molecule had a Ki in assay [1] of 6 nM. As for `CCN(CC)c1ncc(C#Cc2csc(C)n2)cn1` [Example 98], on hmGluR5a receptor, the IC50 was found to be 4 nM. Besides, in assay [1], the affinity, expressed as Ki, was 8 nM. On the same counts, the results for `Cc1nc(C#Cc2cncc(CCc3ccccc3)c2)cs1` [Example 67] are 5 nM and 7 nM. In the case of `Cc1nc(C#Cc2ccc(C3CCCCC3)nc2)cs1` [Example 30, 2-cyclohexyl-5-[(2-methyl-1,3-thiazol-4-yl)ethynyl]pyridine], on hmGluR5a receptor, the IC50 was 2.2 nM. The affinity in assay [1] corresponds to a Ki of 2.3 nM. `CCC(C)(C)Nc1ccc(C#Cc2csc(C)n2)cn1` [Example 59]: the IC50 on hmGluR5a receptor was 6 nM. Besides, the inhibition constant Ki in assay [1] is 4 nM.

On to `Cc1nc(C#Cc2ccc(-c3ccc(F)cc3F)nc2)cs1` [Example 33], for which the IC50 at hmGluR5a receptor amounted to 19 nM. In assay [1], this molecule yielded a Ki of 7 nM. Turning to `Cc1nc(C#Cc2ccc(-c3cccc(C(F)(F)F)c3)nc2)cs1` [Example 77], the IC50 on hmGluR5a receptor turned out to be 3 nM. For the same molecule, in assay [1], the Ki worked out at 13 nM.

Consider `Cc1nc(C#Cc2ccc(-c3cccc(-n4cccn4)c3)nc2)cs1` [Example 87], for which the IC50 on hmGluR5a receptor was determined as 2 nM.

For `Cc1nc(C#Cc2ccc(-c3ccccc3C#N)nc2)cs1` [Example 4, 2-{5-[(2-methyl-1,3-thiazol-4-yl)ethynyl]pyridin-2-yl}benzonitrile], the concentration for half-maximal inhibition (IC50) on hmGluR5a receptor amounted to 2.2 nM.
